Measurements reported in patent publication US9968619B2, “Method of treating triple-negative breast cancer using thienotriazolodiazepine compounds” (ONCOETHIX GMBH, priority 2014, dated 2018).

Experiments:
HCC1937 [1] = assay: MTT proliferation assay, HCC1937; settings: Homo sapiens
MDA-MB-231 [2] = assay: MTT proliferation assay, MDA-MB-231; settings: Homo sapiens
[3] = Pharmacokinetics and oral bioavailability in dogs; format: in vivo; settings: male, beagle, plasma; dog; 1 mg/kg IV; solution in water:ethanol:PEG400 (60:20:20)
Description: Blood samples were collected from the jugular vein of each animal at 0 (pre-dose), 5, 15, and 30 minutes and 1, 2, 4, 8, 12, and 24 hours following intravenous administration and at 0 (pre-dose), 15 and 30 minutes and 1, 2, 4, 8, 12, and 24 hours following oral gavage administration. The amount of compound (1-1) present in each sample was detected using a qualified LC-MS/MS method with a lower limit of quantification of 0.5 ng/mL. The area under the plasma concentration-time curve (AUC) was determined by use of the linear trapezoidal rule up to the last measurable concentration without extrapolation of the terminal elimination phase to infinity. The elimination half-life (t1/2) was calculated by least-squares regression analysis of the terminal linear part of the log concentration-ime curve. The maximum plasma concentration (Cmax) and the time to Cmax (tmax) were derived directly from the plasma concentration data. The oral bioavailability (F) was calculated by dividing the dose normalized AUC after oral administration by the dose normalized AUC after intravenous administration and reported as percentages (%).

MDA-MB-231 [4] = assay: Cell cycle after drug washout, MDA-MB-231; format: cell-based, human; settings: 75 nM for 72 h, then 48 h of drug washout
Description: Cells were staining with propidium iodide then analyzed using a FACScan flow cytometer. […] After 72 h of treatment, control and treated cells were washed with PBS and re-incubated with compound (1-1) free medium (drug washout). As show in FIG. 14A-14C, significant differences in the percentage of compound (1-1)-treated cells in the G1, S and G2/M phases with respect to untreated controls were determined by a one-way ANOVA test (p<0.001) followed by an SNK a posteriori test. After washout, significant differences in the percentage of cells in a given cell cycle phase between control and pre-treated cells were determined with the Student t-test for independent samples with equal or different variance, as appropriate. * , × and # means significant difference between treated cells respect and controls in G1 phase (*p<0.05, **p<0.01), G2/M phase (×p<0.05, ××p<0.01) and S phase p<0.05, ## p<0.01), respectively. Each bar and vertical line represents the mean±SEM, respectively (n≥3).

MDA-MB-231 [5] = assay: Cell counting proliferation, MDA-MB-231; format: cell-based; settings: Homo sapiens
HCC1937 [6] = assay: Cell counting proliferation, HCC1937; format: cell-based; settings: Homo sapiens
[7] = HCC1937, 48 h, 48 h exposure, hypoxia (0.1% O2)
[8] = HCC1937, 48 h, 48 h exposure, normoxia
[9] = HCC1937, 72 h, 72 h exposure, hypoxia (0.1% O2)
[10] = HCC1937, 72 h, 72 h exposure, normoxia
[11] = MDA-MB-231, 48 h, 48 h exposure, hypoxia (0.1% O2)
[12] = MDA-MB-231, 48 h, 48 h exposure, normoxia
[13] = MDA-MB-231, 72 h, 72 h exposure, hypoxia (0.1% O2)
[14] = MDA-MB-231, 72 h, 72 h exposure, normoxia

Cc1sc2c(c1C)C(c1ccc(Cl)cc1)=N[C@@H](CC(=O)Nc1ccc(O)cc1)c1nnc(C)n1-2 [Compound (1-1), 2-[(6S)-4-(4-chlorophenyl)-2,3,9-trimethyl-6H-thienol[3,2-f]-[1,2,4]triazolo[4,3-a][1,4]diazepin-6-yl]-N-(4-hydroxyphenyl)acetamide dihydrate]
Emax (HCC1937 [1]; [7]): 60% | GI50 (HCC1937 [1]; [7]): 23.1 nM | Emax (HCC1937 [1]; [8]): 41% | GI50 (HCC1937 [1]; [8]): 110 nM | Emax (HCC1937 [1]; [9]): 74% | GI50 (HCC1937 [1]; [9]): 29 nM | Emax (HCC1937 [1]; [10]): 51% | GI50 (HCC1937 [1]; HCC1937, 72 h, 72 h exposure, normoxia, * = apparent value): 81.9 nM | Emax (MDA-MB-231 [2]; [11]): 68% | GI50 (MDA-MB-231 [2]; [11]): 63.3 nM | Emax (MDA-MB-231 [2]; [12]): 71% | GI50 (MDA-MB-231 [2]; [12]): 132 nM | Emax (MDA-MB-231 [2]; [13]): 83% | GI50 (MDA-MB-231 [2]; [13]): 48.2 nM | Emax (MDA-MB-231 [2]; [14]): 83% | GI50 (MDA-MB-231 [2]; [14]): 81.7 nM | Cmax [3]: 0.769 ng/mL | cell cycle pattern after drug washout (MDA-MB-231 [4]): recovered the control cell cycle pattern | Emax (MDA-MB-231 [5]; [11]): 67% | GI50 (MDA-MB-231 [5]; [11]): 144 nM | Emax (MDA-MB-231 [5]; [12]): 71% | GI50 (MDA-MB-231 [5]; [12]): 92.2 nM | Emax (MDA-MB-231 [5]; [13]): 82% | GI50 (MDA-MB-231 [5]; [13]): 49.1 nM | Emax (MDA-MB-231 [5]; [14]): 89% | GI50 (MDA-MB-231 [5]; [14]): 55.9 nM | Emax (HCC1937 [6]; [7]): 27% | GI50 (HCC1937 [6]; [7]): > 6000 nM | GI50 (HCC1937 [6]; [8]): > 6000 nM | Emax (HCC1937 [6]; HCC1937, 48 h, 48 h exposure, normoxia, percent with respect to control untreated cells): 31% | Emax (HCC1937 [6]; [9]): 54% | GI50 (HCC1937 [6]; [9]): 247 nM | Emax (HCC1937 [6]; [10]): 70% | GI50 (HCC1937 [6]; [10]): 262 nM
